In ChEMBL document CHEMBL4033765, “Synthesis and Evaluation of a Linkable Functional Group-Equipped Analogue of the Epothilones” (2017):

Legend:
[1] = tested on: A549; test: Growth inhibition of human A549 cells after 4 days by SRB assay; format: functional; settings: A549, 96 h
[2] = tested on: PC-3; test: Growth inhibition of human PC3 cells after 4 days by SRB assay; format: functional; settings: PC-3, 96 h

| SMILES | GI50 [1] | GI50 [2] |
| --- | --- | --- |
| CC(=O)NCCCC[C@H]1C(=O)C(C)(C)[C@@H](O)CC(=O)O[C@H](/C(C)=C/c2csc(C)n2)C[C@@H]2O[C@]2(C)CCC[C@H](C)[C@@H]1O | 1 nM | 2 nM |
| COCCOCCC(=O)NCCCC[C@H]1C(=O)C(C)(C)[C@@H](O)CC(=O)O[C@H](/C(C)=C/c2csc(C)n2)C[C@@H]2O[C@]2(C)CCC[C@H](C)[C@@H]1O | 0.9 nM | 1.9 nM |
| CC(=O)O[C@H]1C(=O)[C@@]2(C)[C@H]([C@H](OC(=O)c3ccccc3)[C@]3(O)C[C@H](OC(=O)[C@H](O)[C@@H](NC(=O)c4ccccc4)c4ccccc4)C(C)=C1C3(C)C)[C@]1(OC(C)=O)CO[C@@H]1C[C@@H]2O [PACLITAXEL] | 3.7 nM | 5.8 nM |
| C/C(=C\c1csc(C)n1)[C@@H]1C[C@@H]2O[C@]2(C)CCC[C@H](C)[C@H](O)[C@@H](C)C(=O)C(C)(C)[C@@H](O)CC(=O)O1 [PATUPILONE] | 0.7 nM | 1.7 nM |
